In patent US12371454B2, “Cyclic peptide compound having Kras inhibitory action” (priority 2019, dated 2025):
Starred links: 1 amine or outer side, 2 acyl side, 3 side chain; linkers in the order of their positions; H or OH if unused. Positions of bridges follow the written chain, without caps; N, C: chain ends. Non-standard residues stand in square brackets, D forms with d. Residues, ends and D or L forms follow the SMILES beside them. *: point of attachment. hPhe(3-Cl-4-CF3) = N[C@@H](CCc1ccc(C(F)(F)F)c(Cl)c1)C(=O)O; hPhe(3-F,4-CF3) = N[C@@H](CCc1ccc(C(F)(F)F)c(F)c1)C(=O)O; NMePhe(4-CF3) = CN[C@@H](Cc1ccc(C(F)(F)F)cc1)C(=O)O; 3Oxa8azabicyclo(3.2.1)octane = C1CC2COCC1N2*; NMePhe(4-F) = CN[C@@H](Cc1ccc(F)cc1)C(=O)O; NMedβ3hAla = C[C@H](CC(=O)[*:2])N(C)[*:1]; NMeGly(cPent) = CN[C@H](C(=O)O)C1CCCC1; Pro(4,4-F2) = O=C(O)[C@@H]1CC(F)(F)CN1; NMeCha = CN[C@@H](CC1CCCCC1)C(=O)O; NMeAhp(2) = CCCCC[C@H](NC)C(=O)O; NMeChg = CN[C@H](C(=O)O)C1CCCCC1; NMeI = CC[C@H](C)[C@H](NC)C(=O)O; NMeD = CN[C@@H](CC(=O)O)C(=O)O; NMeL = CN[C@@H](CC(C)C)C(=O)O; NMehSer = CN[C@@H](CCO)C(=O)O; NMeV = CN[C@H](C(=O)O)C(C)C; Trifluoroethyl = FC(F)(F)C*; NMeS = CN[C@@H](CO)C(=O)O; Morpholide = C1CN(*)CCO1; NMeA = CN[C@@H](C)C(=O)O; NMeAib = CNC(C)(C)C(=O)O; Piperidide = C1CCN(*)CC1; Pyrrolidide = C1CCN(*)C1; Ac5c = NC1(C(=O)O)CCCC1; Aze = O=C(O)[C@@H]1CCN1; Sar = CNCC(=O)O; Propyl = CCC*

System: Human pancreatic cancer cell line AsPC-1
Test: Measurement of AsPC-1 cell growth inhibition (AsPC-1 CGI)
Assay type: cell-based
Settings: 96 h
Experimental: Measurement of AsPC-1 Cell Growth Inhibition (AsPC-1 CGI)
Test compounds were serially diluted with dimethyl sulfoxide, and 200 nL was then dispensed to a U-bottom 96-well plate using Labcyte Echo. Human pancreatic cancer cell line AsPC-1 was suspended in RPMI-1640 medium supplemented with 15% fetal bovine serum to prepare a cell suspension at 1000 cells/100 μL. The cell suspension was dispensed to a plate containing a test compound at 100 μL per well and incubated at 37° C. in a 5% carbon dioxide gas incubator. 96 hours later, 80 μL of CellTiter-Glo (Promega) was added to each well and […] was measured.

| SMILES | IC50 |
| --- | --- |
| CC[C@H](C)[C@@H]1NC(=O)[C@H](CC(C)C)N(C)C(=O)C[C@@H](C(=O)N2CCCCC2)N(C)C(=O)[C@H](C2CCCCC2)N(C)C(=O)C2(CCCC2)NC(=O)[C@H](C)N(C)C(=O)[C@H](CCc2ccc(C(F)(F)F)c(Cl)c2)NC(=O)CN(C)C(=O)[C@H](CC2CCCCC2)N(C)C(=O)CN(C)C(=O)CN(C)C1=O [Compound 294] ([NMeL]I[Sar][Sar][NMeCha][Sar][hPhe(3-Cl-4-CF3)][NMeA][Ac5c][NMeChg][NMeD]-Piperidide; lactam N-11) | 100 to 500 nM |
| CC[C@H](C)[C@@H]1NC(=O)[C@H](CC(C)C)NC(=O)C[C@@H](C(=O)N2CCCCC2)N(C)C(=O)[C@H](C2CCCCC2)N(C)C(=O)C2(CCCC2)NC(=O)[C@@H]2CCCN2C(=O)[C@H](CCc2ccc(C(F)(F)F)c(Cl)c2)NC(=O)CN(C)C(=O)[C@H](CC2CCCCC2)N(C)C(=O)CN(C)C(=O)CN(C)C1=O [Compound 356] (LI[Sar][Sar][NMeCha][Sar][hPhe(3-Cl-4-CF3)]P[Ac5c][NMeChg][NMeD]-Piperidide; lactam N-11) | 100 to 500 nM |
| CC[C@H](C)[C@@H]1NC(=O)[C@H](CC(C)C)N(C)C(=O)C[C@@H](C)N(C)C(=O)[C@H](C2CCCC2)N(C)C(=O)C2(CCCC2)NC(=O)[C@@H]2CCCN2C(=O)[C@H](CCc2ccc(C(F)(F)F)c(F)c2)NC(=O)CN(C)C(=O)[C@H](C2CCCC2)N(C)C(=O)[C@@H]2CCN2C(=O)[C@H](C)N(C)C1=O [Compound 386] (cyclo([Ac5c][NMeGly(cPent)][NMedβ3hAla][NMeL]I[NMeA][Aze][NMeGly(cPent)][Sar][hPhe(3-F,4-CF3)]P)) | 20 to 50 nM |
| CC[C@H](C)[C@@H]1NC(=O)[C@H](COCC(F)(F)F)N(C)C(=O)C[C@@H](C(=O)N2CCCCC2)N(C)C(=O)[C@H](C(C)C)N(C)C(=O)C2(CCCC2)NC(=O)[C@@H]2CCCN2C(=O)[C@H](CCc2ccc(C(F)(F)F)c(Cl)c2)NC(=O)CN(C)C(=O)[C@H](CC2CCCCC2)N(C)C(=O)[C@@H]2CCN2C(=O)[C@H](C)N(C)C1=O [Compound 387] ([NMeS](Trifluoroethyl)I[NMeA][Aze][NMeCha][Sar][hPhe(3-Cl-4-CF3)]P[Ac5c][NMeV][NMeD]-Piperidide; lactam N-11) | 100 to 500 nM |
| CC[C@H](C)[C@@H]1NC(=O)[C@H](CC(C)C)N(C)C(=O)C[C@@H](C(=O)N2CCCCC2)N(C)C(=O)[C@H](C2CCCC2)N(C)C(=O)C2(CCCC2)NC(=O)[C@@H]2CCCN2C(=O)[C@H](CCc2ccc(C(F)(F)F)c(Cl)c2)NC(=O)CN(C)C(=O)[C@H](Cc2ccc(F)cc2)N(C)C(=O)[C@@H]2CCN2C(=O)[C@H](C)N(C)C1=O [Compound 388] ([NMeL]I[NMeA][Aze][NMePhe(4-F)][Sar][hPhe(3-Cl-4-CF3)]P[Ac5c][NMeGly(cPent)][NMeD]-Piperidide; lactam N-11) | 20 to 50 nM |
| CC[C@H](C)[C@@H]1NC(=O)[C@H](CCOC)N(C)C(=O)C[C@@H](C(=O)N2CCCCC2)N(C)C(=O)[C@H](C(C)C)N(C)C(=O)C2(CCCC2)NC(=O)[C@@H]2CCCN2C(=O)[C@H](CCc2ccc(C(F)(F)F)c(Cl)c2)NC(=O)CN(C)C(=O)[C@H](CC2CCCCC2)N(C)C(=O)[C@@H]2CCN2C(=O)[C@H](C)N(C)C1=O [Compound 397] ([NMehSer](Me)I[NMeA][Aze][NMeCha][Sar][hPhe(3-Cl-4-CF3)]P[Ac5c][NMeV][NMeD]-Piperidide; lactam N-11) | 100 to 500 nM |
| CCCOC[C@H]1C(=O)N(C)CC(=O)N[C@@H](CCc2ccc(C(F)(F)F)c(F)c2)C(=O)N2CCC[C@H]2C(=O)NC2(CCCC2)C(=O)N(C)[C@@H]([C@@H](C)CC)C(=O)N(C)[C@H](C(=O)N2C3CCC2COC3)CC(=O)N(C)[C@@H](CC(C)C)C(=O)N[C@@H]([C@@H](C)CC)C(=O)N(C)[C@@H](C)C(=O)N2CC[C@H]2C(=O)N1C [Compound 408] ([NMeL]I[NMeA][Aze][NMeS](Propyl)[Sar][hPhe(3-F,4-CF3)]P[Ac5c][NMeI][NMeD]-{3Oxa8azabicyclo(3.2.1)octane}; lactam N-11) | 50 to 100 nM |

Further lines, results first:

| IC50 | SMILES |
| --- | --- |
| 20 to 50 nM | CCCCC[C@H]1C(=O)N[C@@H]([C@@H](C)CC)C(=O)N[C@@H](C)C(=O)N2CC[C@H]2C(=O)N(C)[C@@H](CC2CCCCC2)C(=O)N(C)CC(=O)N[C@@H](CCc2ccc(C(F)(F)F)c(Cl)c2)C(=O)N2CCC[C@H]2C(=O)NC2(CCCC2)C(=O)N(C)[C@@H](C2CCCC2)C(=O)N(C)[C@H](C(=O)N2CCOCC2)CC(=O)N1C [Compound 263] ([NMeAhp(2)]IA[Aze][NMeCha][Sar][hPhe(3-Cl-4-CF3)]P[Ac5c][NMeGly(cPent)][NMeD]-Morpholide; lactam N-11) |
| 20 to 50 nM | CC[C@H](C)[C@@H]1NC(=O)[C@H](CC(C)C)N(C)C(=O)C[C@@H](C(=O)N2CCCC2)N(C)C(=O)[C@H]([C@@H](C)CC)N(C)C(=O)C2(CCCC2)NC(=O)[C@@H]2CCCN2C(=O)[C@H](CCc2ccc(C(F)(F)F)c(F)c2)NC(=O)CN(C)C(=O)[C@H](C2CCCC2)N(C)C(=O)[C@@H]2CCN2C(=O)[C@H](C)N(C)C1=O [Compound 313] ([NMeL]I[NMeA][Aze][NMeGly(cPent)][Sar][hPhe(3-F,4-CF3)]P[Ac5c][NMeI][NMeD]-Pyrrolidide; lactam N-11) |
| 100 to 500 nM | CC[C@H](C)[C@@H]1NC(=O)[C@H](CC(C)C)N(C)C(=O)C[C@@H](C)N(C)C(=O)[C@H](C2CCCCC2)N(C)C(=O)C2(CCCC2)NC(=O)[C@@H]2CC(F)(F)CN2C(=O)[C@H](CCc2ccc(C(F)(F)F)c(Cl)c2)NC(=O)CN(C)C(=O)[C@H](Cc2ccc(C(F)(F)F)cc2)N(C)C(=O)[C@@H]2CCN2C(=O)[C@H](C)N(C)C1=O [Compound 319] (cyclo([Ac5c][NMeChg][NMedβ3hAla][NMeL]I[NMeA][Aze][NMePhe(4-CF3)][Sar][hPhe(3-Cl-4-CF3)][Pro(4,4-F2)])) |
| 100 to 500 nM | CC[C@H](C)[C@@H]1NC(=O)[C@H](C)N(C)C(=O)C[C@@H](C)N(C)C(=O)[C@H](C(C)C)N(C)C(=O)C(C)(C)N(C)C(=O)[C@@H]2CCCN2C(=O)[C@H](CCc2ccc(C(F)(F)F)c(Cl)c2)NC(=O)CN(C)C(=O)[C@H](CC2CCCCC2)N(C)C(=O)[C@@H]2CCN2C(=O)[C@H](C)N(C)C1=O [Compound 341] (cyclo([Aze][NMeCha][Sar][hPhe(3-Cl-4-CF3)]P[NMeAib][NMeV][NMedβ3hAla][NMeA]I[NMeA])) |
| 100 to 500 nM | CC[C@H](C)[C@@H]1NC(=O)[C@H](CC(C)C)N(C)C(=O)C[C@@H](C)N(C)C(=O)[C@H](C2CCCCC2)N(C)C(=O)C2(CCCC2)NC(=O)[C@@H]2CCCN2C(=O)[C@H](CCc2ccc(C(F)(F)F)c(Cl)c2)NC(=O)CN(C)C(=O)[C@H](Cc2ccc(C(F)(F)F)cc2)N(C)C(=O)[C@@H]2CCN2C(=O)[C@H](C)N(C)C1=O [Compound 348] (cyclo([Ac5c][NMeChg][NMedβ3hAla][NMeL]I[NMeA][Aze][NMePhe(4-CF3)][Sar][hPhe(3-Cl-4-CF3)]P)) |
| 20 to 50 nM | CCCOC[C@H]1C(=O)N(C)CC(=O)N[C@@H](CCc2ccc(C(F)(F)F)c(Cl)c2)C(=O)N2CCC[C@H]2C(=O)NC2(CCCC2)C(=O)N(C)[C@@H](C2CCCC2)C(=O)N(C)[C@H](C)CC(=O)N(C)[C@@H](CC(C)C)C(=O)N[C@@H]([C@@H](C)CC)C(=O)N(C)[C@@H](C)C(=O)N2CC[C@H]2C(=O)N1C [Compound 366] (cyclo([Ac5c][NMeGly(cPent)][NMedβ3hAla][NMeL]I[NMeA][Aze][NMeS](Propyl)[Sar][hPhe(3-Cl-4-CF3)]P)) |
